The IC50 is the concentration at which inhibition is half-maximal. Read a high IC50 as weaker potency.

From PMC4812296, “A chemical family-based strategy for uncovering hidden bioactive molecules and multicomponent interactions in herbal medicines” (Scientific Reports, 2016) come the findings set out here.

The target of the assay is T1, thrombin (Bos taurus, UniProt P00735).
T1 construct: gene F2
The assay is described as follows: chromogenic S-2238 hydrolysis assay, bovine plasma thrombin. Format: biochemical.
Regarding `Cc1cccc2c3c(ccc12)C1=C(C(=O)C3=O)[C@@H](C)CO1` (single isomer, unassigned) [peak 15, Dihydrotanshinone I], half-maximal inhibition (IC50) was put at 92 ± 5 µM.
Next, `C[C@H]1COC2=C1C(=O)C(=O)c1c2ccc2c1CCCC2(C)C` (single isomer, unassigned) [peak 16, Cryptotanshinone]: 102 ± 4 µM; `Cc1coc2c1C(=O)C(=O)c1c-2ccc2c(C)cccc12` [peak 17, Tanshinone I]: 333 ± 28 µM.
Next, `Cc1coc2c1C(=O)C(=O)c1c-2ccc2c1CCCC2(C)C` [peak 18, Tanshinone IIA]: 39 ± 1 µM.
